Patent US20240174637A1, “DEGRADERS OF GRK2 AND USES THEREOF” (Sonata Therapeutics, Inc., priority 2021, published 2024)
Where two headings read alike, the source gives them in different places.

Columns and labels:
Format in all cases: cell-based
[1] = system: PAXF1657 EV; assay: 7-day cellular proliferation assay (CellTiter-Glo), PAXF1657 EV
Experimental: (§1) In order to identify compounds specific for GRK2, we generated two isogenic cell line pairs of the pancreatic cancer cell line PAXF1657, a pair of cells stably overexpressing GRK2 cDNA or the control empty vector and a cell line pair of PAXF1657 GRK2 knockout clonal cells versus non-targeting control clonal cells.
(§2) Proliferation Assay: Cellular anti-proliferative activity of compounds was assessed by using the pancreatic cancer cell line, PAXF1657, stably overexpressing GRK2 cDNA or the control empty vector, as well as the parental urinary bladder cancer cell line, 5637. In addition, we also took advantage of GRK2 knockout cell lines that were generated via CRISPR. Cell lines were seeded into tissue culture treated, white-walled, 96-well plates at a density of 500 cells/well in RPMI1640 media supplemented with 10% H.I. FBS and penicillin/streptomycin. Plates were incubated overnight at 37° C., 5% CO2 to allow cells to adhere to the wells. GRK2 inhibitors were added to the cells using a 10-point dilution series with a final concentration ranging from 30 μM-0.0002 μM in 0.3% DMSO. At the time of compound addition, a set of plates, that were not treated with compounds, were collected and cell viability was measured using CellTiter-Glo (Promega). CellTiter-Glo reagent was added to the designed plates and luminescence was measuring using a Biotek Synergy plate reader. The compound treated cells were incubated for 3 days at 37° C., 5% CO2. The media was then aspirated from each well and replaced with fresh media containing GRK2 inhibitors. The compound treated cells were then incubated for an additional 4 days at 37° C., 5% CO2. Cell viability was assessed and at end of the 7-day compound treatment by CellTiterGlo.

[2] = system: PAXF1657 KO Clone #4; assay: 7-day cellular proliferation assay (CellTiter-Glo), PAXF1657 KO Clone #4
Experimental: as §1, §2

[3] = molecular target: T1, GRK2 (Homo sapiens, UniProt P25098); assay: GRK2 Degradation Assay and Western Blot in PAXF1657 cells; design: endogenous in cells; host or cells: PAXF1657
T1 sequence (P25098 1-689): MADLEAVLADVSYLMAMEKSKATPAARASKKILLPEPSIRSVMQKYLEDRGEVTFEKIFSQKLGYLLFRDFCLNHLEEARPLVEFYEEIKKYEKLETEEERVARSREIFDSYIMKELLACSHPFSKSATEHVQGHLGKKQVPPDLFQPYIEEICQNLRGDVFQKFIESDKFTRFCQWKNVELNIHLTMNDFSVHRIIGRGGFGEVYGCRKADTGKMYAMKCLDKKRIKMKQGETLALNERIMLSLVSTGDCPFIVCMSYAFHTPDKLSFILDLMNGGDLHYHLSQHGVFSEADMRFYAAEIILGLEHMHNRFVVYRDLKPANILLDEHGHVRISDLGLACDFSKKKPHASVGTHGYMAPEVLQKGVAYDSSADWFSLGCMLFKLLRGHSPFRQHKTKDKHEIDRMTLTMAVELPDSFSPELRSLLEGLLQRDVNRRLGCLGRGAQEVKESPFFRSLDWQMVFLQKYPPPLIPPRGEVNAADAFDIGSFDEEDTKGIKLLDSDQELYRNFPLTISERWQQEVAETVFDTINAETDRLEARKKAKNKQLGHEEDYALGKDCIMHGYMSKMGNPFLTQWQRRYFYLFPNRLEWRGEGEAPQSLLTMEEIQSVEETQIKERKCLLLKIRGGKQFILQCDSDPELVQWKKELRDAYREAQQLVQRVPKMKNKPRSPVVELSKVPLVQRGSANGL
Experimental: General Protocol: Degradation Assay and Western Blot. PAXF1657 cells were plated in 6-well, 24-well plates or 60 mm tissue culture treated dishes and incubated at 37° C. until 70% confluency. The media was aspirated, and the cells were treated with fresh media containing the compounds in the concentration range of 0 μM to 10 μM for a period of 6 to 24 hours. At the desired time points the cells were washed twice with cold PBS and lysed with lysis buffer (ice cold PBS+1% NP40 with 1/100 protease/phosphatase inhibitors) on ice for 8 mins followed by sonication at 70% intensity pulses for 10 seconds. The cells were centrifuged at 20000 g for 8 min at 4° C. The supernatants were collected and stored at −80° C.
Samples were mixed with NuPAGE LDS sample buffer and NuPAGE sample reducing buffer (3×), vortexed and heated at 95° C. for 10 min, and then analyzed by SDS-PAGE (NuPAGE 4-12%) followed by transfer to nitrocellulose membrane. […] The membranes were washed three times with TBST and incubated with GRK2 or R-actin antibodies in 5% milk in TBST at 4° C. overnight. The membranes were washed three times with TBST and incubated with anti-mouse IgG-HRP or anti-rabbit IgG-HRP at room temperature for 2 hours in 5% milk in TBST. The membranes were washed three times with TBST and developed with ECL Dura, ECL femto or ECL atto substrates.

[4] = proliferation, read-out: GeoMean IC50 (UM) PAXF1657 EV
[5] = proliferation, read-out: GeoMean IC50 (uM) PAXF1657 KO Clone #4
[6] = Conc 0.3 uM, read-out: Degradation Assay - 3 point: Degradation (%)
[7] = Conc 1 uM, read-out: Degradation Assay - 3 point: Degradation (%)
[8] = Conc 3 uM, read-out: Degradation Assay - 3 point: Degradation (%)
[9] = 168 h, 7-day, read-out: 7-day proliferation assay: IC50 GeoMean (uM) [Cell Line: PAXF1657 EV]
[10] = 168 h, 7-day, read-out: 7-day proliferation assay: IC50 GeoMean (uM) [Cell Line: PAXF1657 KO Clone #4]
[11] = 1 uM, PAXF1657 EV, 24 hrs, read-out: % GRK2 degradation at 1 uM in PAXF1657 EV (24 hrs)
[12] = 3 uM, PAXF1657 EV, 24 hrs, read-out: % GRK2 degradation at 3 uM in PAXF1657 EV (24 hrs)
[13] = read-out: Degradation Assay - 3 point: Degradation (%)

| Compound | inhibition at 0.3 µM [3, 6] | inhibition at 1 µM [3, 7] | inhibition at 3 µM [3, 8] | IC50 [1, 4] | IC50 [2, 5] | also measured |
| --- | --- | --- | --- | --- | --- | --- |
| C[C@@H](NC(=O)c1cccc(NCc2nnc(-c3ccncn3)n2C)c1)c1cccc(OCCCCCCn2cc(CCC(=O)Nc3cccc4c3CN(C3CCC(=O)NC3=O)C4=O)nn2)c1 (stereo partly shown) [Compound D159] | 10% | 46.3% | 64.5% | 18.2 µM | > 30 µM | – |
| Cc1ncsc1-c1ccc(CNC(=O)[C@@H]2C[C@@H](O)CN2C(=O)[C@@H](NC(=O)COCCCOCCCCCOc2ccc3c(c2)[C@H](NC(=O)c2cccc(NCc4nnc(-c5ccncn5)n4C)c2)CCO3)C(C)(C)C)cc1 [Compound D161] | 15% | 23% | 30% | 1.56 µM | 7.51 µM | – |
| Cn1c(CNc2cccc(C(=O)NCc3cccc(OCCCCCC(=O)NCCOCCOCCOCCC(=O)Nc4cccc5c4CN(C4CCC(=O)NC4=O)C5=O)c3)c2)nnc1-c1ccncn1 (stereo not shown) [Compound D113] | – | – | – | – | – | IC50 [1, 9]: > 10 µM; IC50 [2, 10]: > 10 µM; inhibition at 1 µM [3, 11]: -6%; inhibition at 3 µM [3, 12]: 0% |
| Cn1c(CNc2cccc(C(=O)NCc3cccc(OCCCCCCC(=O)NCCOCCOCCOCCC(=O)Nc4cccc5c4CN(C4CCC(=O)NC4=O)C5=O)c3)c2)nnc1-c1ccncn1 (stereo not shown) [Compound D114] | – | – | – | – | – | IC50 [1, 9]: > 10 µM; IC50 [2, 10]: > 10 µM; inhibition at 1 µM [3, 11]: 32%; inhibition at 3 µM [3, 12]: 15% |
| C[C@@H](NC(=O)c1cccc(NCc2nnc(-c3ccncn3)n2C)c1)c1cccc(OCCCCCCn2cc(CCCC(=O)Nc3cccc4c3CN(C3CCC(=O)NC3=O)C4=O)nn2)c1 (stereo partly shown) [Compound D165] | -1.61% | 35.5% | 70.1% | 2.6 µM | > 30 µM | – |
| C[C@@H](NC(=O)c1cccc(NCc2nnc(-c3ccncn3)n2C)c1)c1cccc(OCCCCCCn2cc(CCCCC(=O)Nc3cccc4c3CN(C3CCC(=O)NC3=O)C4=O)nn2)c1 (stereo partly shown) [Compound D166] | 12.1% | 32.4% | 68.1% | 1.91 µM | > 30 µM | – |
| Cn1c(CNc2cccc(C(=O)N[C@@H]3CCOc4ccc(OCCCCCCOCCOCCOCCCCCC(=O)N5CCN(c6ccc7c(c6)CN(C6CCC(=O)NC6=O)C7=O)CC5)cc43)c2)nnc1-c1ccncn1 (stereo partly drawn) [Compound D188, N-((4R)-6-(6-(2-(2-(6-(4-(2-(2,6-dioxopiperidin-3-yl)-1-oxoisoindolin-5-yl)piperazin-1-yl)-6-oxohexyloxy)ethoxy)ethoxy)hexyloxy)chroman-4-yl)-3-((4-methyl-5-(pyrimidin-4-yl)-4H-1,2,4-triazol-3-yl)methylamino)benzamide] | – | – | – | 1.26 µM | > 30 µM | inhibition at 0.3 µM [3, 13]: 56.9%; inhibition at 1 µM [3, 13]: 67.7%; inhibition at 3 µM [3, 13]: 78.2% |
| Cn1c(CNc2cccc(C(=O)NCc3cccc(OCCCCCCCn4cc(CCCC(=O)Nc5cccc6c5CN(C5CCC(=O)NC5=O)C6=O)nn4)c3)c2)nnc1-c1ccncn1 (stereo not shown) [Compound D61] | – | – | – | – | – | IC50 [1, 9]: > 10 µM; IC50 [2, 10]: > 10 µM; inhibition at 0.3 µM ([3]; 0.3 uM, PAXF1657 EV, 24 hrs, read-out: % GRK2 degradation at 0.3 uM in PAXF1657 EV (24 hrs)): 28%; inhibition at 1 µM [3, 11]: 55%; inhibition at 3 µM [3, 12]: 52% |
| Cc1ncsc1-c1ccc(CNC(=O)[C@@H]2C[C@@H](O)CN2C(=O)[C@@H](NC(=O)COCCCOCCCCCOc2cccc([C@H](C)NC(=O)c3cccc(NCc4nnc(-c5ccncn5)n4C)c3)c2)C(C)(C)C)cc1 [Compound D184, (2S,4R)-1-((S)-3,3-dimethyl-2-(2-(3-((5-(3-((S)-1-(3-(((4-methyl-5-(pyrimidin-4-yl)-4H-1,2,4-triazol-3-yl)methyl)amino)benzamido)ethyl)phenoxy)pentyl)oxy)propoxy)acetamido)butanoyl)-4-hydroxy-N-(4-(4-methylthiazol-5-yl)benzyl)pyrrolidine-2-carboxamide] | 1.96% | 17.7% | 20.6% | – | – | – |
| C[C@@H](NC(=O)c1cccc(NCc2nnc(-c3ccncn3)n2C)c1)c1cccc(OCCCCCOCCCOCC(=O)Nc2cccc3c2CN(C2CCC(=O)N(C)C2=O)C3=O)c1 (stereo partly drawn) [Compound D194, N-((1R)-1-(3-((5-(3-(2-((2-(1-methyl-2,6-dioxopiperidin-3-yl)-1-oxoisoindolin-4-yl)amino)-2-oxoethoxy)propoxy)pentyl)oxy)phenyl)ethyl)-3-(((4-methyl-5-(pyrimidin-4-yl)-4H-1,2,4-triazol-3-yl)methyl)amino)benzamide] | 25% | 15% | 0% | – | – | – |

More lines, main results first:

| inhibition at 0.3 µM [3, 6] | inhibition at 1 µM [3, 7] | inhibition at 3 µM [3, 8] | Compound | IC50 [1, 4] | IC50 [2, 5] | also measured |
| --- | --- | --- | --- | --- | --- | --- |
| -46.4% | 9.8% | 32.1% | Cn1c(CNc2cccc(C(=O)NCc3cccc(OCCCCCCOCCOCCOCCC(=O)Nc4cccc5c4CN(C4CCC(=O)NC4=O)C5=O)c3)c2)nnc1-c1ccncn1 (stereo not shown) [Compound D195, N-(3-(6-(2-(2-(3-(2-(2,6-dioxopiperidin-3-yl)-1-oxoisoindolin-4-ylamino)-3-oxopropoxy)ethoxy)ethoxy)hexyloxy)benzyl)-3-((4-methyl-5-(pyrimidin-4-yl)-4H-1,2,4-triazol-3-yl)methylamino)benzamide] | 1.09 µM | > 30 µM | – |
| 13.5% | 37.4% | 56.2% | Cn1c(CNc2cccc(C(=O)N[C@@H]3CCOc4ccc(OCCCCCOCCCOCC(=O)Nc5cccc6c5CN(C5CCC(=O)NC5=O)C6=O)cc43)c2)nnc1-c1ccncn1 (stereo partly drawn) [Compound D192, N-((4R)-6-(5-(3-(2-(2-(2,6-dioxopiperidin-3-yl)-1-oxoisoindolin-4-ylamino)-2-oxoethoxy)propoxy)pentyloxy)chroman-4-yl)-3-((4-methyl-5-(pyrimidin-4-yl)-4H-1,2,4-triazol-3-yl)methylamino)benzamide] | – | – | – |
| 19.3% | 16.7% | 29.6% | C[C@H](NC(=O)c1cccc(NCc2nnc(-c3ccncn3)n2C)c1)c1cccc(OCCCCCCOCCOCC(=O)Nc2cccc3c2CN(C2CCC(=O)NC2=O)C3=O)c1 (stereo partly drawn) [Compound D193, N-((1S)-1-(3-((6-(2-(2-((2-(2,6-dioxopiperidin-3-yl)-1-oxoisoindolin-4-yl)amino)-2-oxoethoxy)ethoxy)hexyl)oxy)phenyl)ethyl)-3-(((4-methyl-5-(pyrimidin-4-yl)-4H-1,2,4-triazol-3-yl)methyl)amino)benzamide] | – | – | – |
